# How the values were obtained:
# [1] = Adduct formation with beta mercaptoethanol (BME), followed spectrophotometrically
# Source text: While not wishing to be bound by theory, during inflammation, reversible reactions with nucleophilic molecules such as NF-κB and the inflammasomes have shown to modify inflammatory response. One method to identify reactions with nucleophilic targets at physiological pH is by screening with beta mercaptoethanol ("BME"). […] Thus, the nitroalkene NSAIDs within the scope of the present invention react with nucleophilic molecules such as NF-κB and the inflammasomes to modify inflammatory response.
# [2] = system: NF-κB; assay: IL-1β secretion by ELISA in PMA-differentiated macrophages, compound given together with LPS (1st signal); assay type: cell-based
# Protocol: (§1) In order to compare benzoic acid (BA) and nitroalkene benzoic acid (BANA) over NF-κB and inflammasome function in macrophages, TUP-1 cells were differentiated into macrophages with PMA (200 nM, 48 h). Cells were then stimulated with LPS (250ng/mL) and with ATP (5mM, 45 minutes). Together with LPS (1st signal, FIG. 6) or ATP (2nd signal, FIG. 7), cells were treated with Benzoic acid (30 µM) or BANA (30 µM). Supernatants were collected and IL-1β secretion was measured by ELISA. […] Thus, BANA inhibits both the generation of the inflammasome, and inhibits the inflammasome itself.
# (§2) Further exemplary studies were performed with Flufenamate (FluFE) and nitroalkene flufenamate (FluFENA). In order to study the effect of Flufenamate (FluFE) and FluFENA over NF-κB and inflammasome function in macrophages, THP-1 cells were differentiated into macrophages with PMA (200 nM, 48 h). Cells were stimulated with LPS (250ng/mL) and then with ATP (5mM, 45 minutes). Together with LPS (1st signal, FIG. 8) or ATP (2nd signal, FIG. 9), cells were treated with FluFE (5 µM) or FluFENA (5 µM). Supernatant were collected and IL-1β secretion was measured by ELISA. Cell viability was assessed by the MTT assay.
# (§3) To study the effect of ibuprofen and IBUNA over NF-xB and inflammasome function in macrophages, TUP-1 cells were differentiated into macrophages with PMA (200 nM, 48 h). Cells were stimulated with LPS (250ng/mL) and then with ATP (5mM, 45 minutes). Together with LPS (1st signal, FIG. 10) or ATP (2nd signal, FIG. 11), cells were treated with Ibuprofen (20 µM) or IBUNA (20 µM). Supernatant were collected and IL-1β secretion was measured by ELISA.
# [3] = system: inflammasome; assay: IL-1β secretion by ELISA in PMA-differentiated macrophages, compound given together with ATP (2nd signal); assay type: cell-based
# Protocol: as §1, §2, §3
# [4] = system: IL-1β; assay: In vivo model of peritonitis (LPS-induced inflammatory response), IL-1β by ELISA; conditions: mice, 50 mg/kg IP 1 hour before LPS 10 mg/kg IP for 2 hours; as opposed to BA; FIG. 12
# Protocol: Mice were treated with BANA, Benzoic Acid (50 mg/kg, IP) or the vehicle (100 mM Phosphate buffer 10% DMSO) for 1 hour. Then were injected with LPS (10 mg/kg, IP) or PBS for 2 hours. Mice were collected for peritoneal wash and blood samples were extracted. The peritoneal wash and plasma were stored to measure IL-1β by ELISA. The values are show as mean ± SD from three mice per condition and we have used the statistic test one-way ANOVA with Bonferroni.
smiles,measurement,setting,value
"O=C(O)c1ccc(/C=C/[N+](=O)[O-])cc1 [BANA, (E)-4-(2-nitrovinyl)benzoic acid]",nitroalkene NSAID adduction with BME (absorbance),"[1]; 10 µM BANA with 30 µM BME, 100 mM phosphate buffer pH 7.4, FIG. 4",absorbance increase
same,IL-1β secretion,"[2]; TUP-1 cells differentiated with PMA, 30 µM together with LPS 250ng/mL (1st signal), then ATP 5mM 45 minutes, vs Benzoic acid 30 µM, FIG. 6",inhibition of IL-1β secretion
same,IL-1β secretion,"[3]; TUP-1 cells differentiated with PMA, LPS 250ng/mL, then 30 µM together with ATP 5mM 45 minutes (2nd signal), vs Benzoic acid 30 µM, FIG. 7",inhibition of IL-1β secretion
same,level of pro-inflammatory cytokine IL-1β secretion in blood plasma,[4],marked decrease
same,level of pro-inflammatory cytokine IL-1β secretion in peritoneal wash,[4],marked decrease
"O=C(O)c1cc(/C=C/[N+](=O)[O-])ccc1Nc1cccc(C(F)(F)F)c1 [FluFENA, (E)-5-(2-nitrovinyl)-2-((3-(trifluoromethyl)phenyl)amino)benzoic acid]",nitroalkene NSAID adduction with BME (absorbance),"[1]; 12.5 µM FluFENA with 125 µM BME, 100 mM phosphate buffer pH 7.4, FIG. 3",absorbance increase
same,IL-1β secretion,"[2]; THP-1 cells differentiated with PMA, 5 µM together with LPS 250ng/mL (1st signal), compared with FluFE 5 µM, FIG. 8",unexpected advantage
same,IL-1β secretion,"[3]; THP-1 cells differentiated with PMA, 5 µM together with ATP 5mM 45 minutes (2nd signal), compared with FluFE 5 µM, FIG. 9",unexpected advantage
"CC(C)Cc1ccc(C(C)C(=O)O)cc1/C=C/[N+](=O)[O-] (stereo not shown) [IBUNA, (E)-2-(4-isobutyl-3-(2-nitrovinyl)phenyl)propanoic acid]",nitroalkene NSAID adduction with BME (absorbance),"[1]; 50 µM IBUNA with 250 µM BME, 100 mM phosphate buffer pH 7.4, FIG. 2",absorbance increase
same,IL-1β secretion,"[2]; TUP-1 cells differentiated with PMA, 20 µM together with LPS 250ng/mL (1st signal), compared with Ibuprofen 20 µM, FIG. 10",unexpected superiority
same,IL-1β secretion,"[3]; TUP-1 cells differentiated with PMA, 20 µM together with ATP 5mM 45 minutes (2nd signal), compared with Ibuprofen 20 µM, FIG. 11",unexpected superiority
"CC(=O)Nc1ccc(O)c(/C=C/[N+](=O)[O-])c1 [PARANA, (E)-N-(4-hydroxy-3-(2-nitrovinyl)phenyl)acetamide]",nitroalkene NSAID adduction with BME (absorbance),"[1]; 30 µM PARANA with 30 µM BME, 100mM phosphate buffer pH 7.4, FIG. 1",absorbance increase
"O=[N+]([O-])/C=C/c1ccc(O)cc1 [PheNA, (E)-4-(2-nitrovinyl)phenol]",nitroalkene NSAID adduction with BME (absorbance),"[1]; 50 µM PheNA with 500 µM BME, 100 mM phosphate buffer pH 7.4, FIG. 5",absorbance increase

# Reference: patent EP3732162B1, “NITROALKENE NON STEROIDAL ANTI-INFLAMMATORY DRUGS (NA-NSAIDS) AND METHODS OF TREATING INFLAMMATION RELATED CONDITIONS” (Institut Pasteur De Montevideo, priority 2017, dated 2019)
